Marks after values point to notes of the source that are not given here.
Experiments:
[1] = molecular target: T1, protein tyrosine phosphatase 1B (PTP-1B) (Homo sapiens, UniProt P18031); experiment: PTP-1B inhibitory activity test in vitro; type: biochemical
T1 sequence (P18031 1-435): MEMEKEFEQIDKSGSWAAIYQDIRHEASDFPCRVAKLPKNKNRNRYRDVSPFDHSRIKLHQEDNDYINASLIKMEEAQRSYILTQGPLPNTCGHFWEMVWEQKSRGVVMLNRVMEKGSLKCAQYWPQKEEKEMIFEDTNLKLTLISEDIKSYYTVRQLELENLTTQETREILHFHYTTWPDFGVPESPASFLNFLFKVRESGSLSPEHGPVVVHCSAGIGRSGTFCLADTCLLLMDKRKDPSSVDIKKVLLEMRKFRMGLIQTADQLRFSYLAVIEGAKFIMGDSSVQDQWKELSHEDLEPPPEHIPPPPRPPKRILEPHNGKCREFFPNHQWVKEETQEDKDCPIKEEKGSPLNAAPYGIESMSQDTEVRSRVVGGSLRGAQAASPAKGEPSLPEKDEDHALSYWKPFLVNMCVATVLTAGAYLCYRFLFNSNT
In short: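 Compound was preincubated 10 min at room temperature with 170 μg/mL PTP-1B solution, then 1 mM pNPP substrate was added and incubated 37 °C for 30 min. Reaction stopped with 3M NaOH; absorbance read at […], with blank and compound-background controls.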

[2] = system: hyperglycemia KK-A^y mice; experiment: liver tissue section of hyperglycemia KK-A^y mice (HE); type: in vivo; details: FIG. 1, 10 and 20 mg/kg
Procedure: Detect the fasting glucose of male KK-A^y mice, which are 6-8 weeks with the weight of 28-32 g, and divide them into different groups according to the blood sugar level and body weight: (2) model control group, (3) which is administered by compound S13 with the dose of 1 mg/kg, (4) which is administered by compound S13 with the dose of 5 mg/kg, (5) which is administered by compound S13 with the dose of 10 mg/kg, (6) which is administered by compound S13 with the dose of 20 mg/kg, (7) which is administered by compound S28 with the dose of 1 mg/kg, (8) which is administered by compound S28 with the dose of 5 mg/kg, (9) which is administered by compound S28 with the dose of 10 mg/kg, (10) which is administered by compound S28 with the dose of 20 mg/kg, (11) which is administered by metformin with the dose of 8 g/kg, (12) which is administered by compound S13 with the dose of 2.5 mg/kg and metformin with the dose of 4 g/kg, (13) which is administered by compound S13 with the dose of 5 mg/kg and metformin with the dose of 4 g/kg, (14) which is administered by compound S28 with the dose of 2.5 mg/kg and metformin with the dose of […], (15) which is administered by compound S28 with the dose of 5 mg/kg and metformin with the dose of […]. Each group has 8 mice, and is administrated successively for 3 weeks. Model control group is given with equal amounts of 0.5% CMC-Na. […]

[3] = system: Wister rats fed with choline deficient diet; experiment: non-alcohol fatty liver disease in rats fed choline deficient (high-fat) diet; type: in vivo; details: for ALT / HDL-C / LDL-C / Liver index / TC / TG: 4 weeks
Procedure: Serum total cholesterol kit (batch number 20131112), low density lipoprotein LDL-C kit (batch number 20140114), high density lipoprotein HDL-C kit (batch number 20140413), triglyceride TG kit (batch number 20131226) and glutamic-pyruvic transaminase ALT kit (batch number 20131006) are purchased from Nanjing Jiancheng Bioengineering Institute.
Methods: male SPF level Wister rats are randomly divided into groups: (1) normal group (2) model control group (3) which is administered by compound S13 with the dose of 10 mg/kg (4) which is administered by compound S13 with the dose of 20 mg/kg (5) which is administered by compound S28 with the dose of 10 mg/kg […] which is administered by compound S28 with the dose of 20 mg/kg. Each group has 10 mice. The mice of normal group are fed with standard diet, the mice of other groups are fed with choline deficient diet (high-fat diet). Food intake and body weight are detected. Feeding with choline deficient diet are considered as a frequently-used hepatic adipose infiltration modeling method of rodent, which can induce the denaturation of hepatocyte, hepatitis and liver injury, at the same time the increase of blood lipid level can induce the insulin resistance.
After being fed with high-fat diet for 8 weeks, the mice of treated group are given drugs for 4 weeks successively. Model group and normal group are given with equal amounts of 0.5% CMC-Na. After administration of medicine for 4 weeks, the rats are executed under anesthesia, and then hepatic tissue and blood are collected.
2) Contents of serum total cholesterol, low density lipoprotein, high density lipoprotein and triglyceride.
3) Contents of glutamic-pyruvic transaminase.

[4] = system: hyperglycemia mice induced by alloxan; experiment: blood sugar of hyperglycemia mice induced by alloxan; type: in vivo, Kunming species mice; details: for effect on blood sugar level of hyperglycemic mice (in words): 50 mg/kg
Procedure: Blood glucose determination kit (batch number 20140403) is purchased from Nanjing Jiancheng Bioengineering Institute. Methods: after being acclimatized for 1 week, 10 randomly selected Kunming species male mice of SPF level of 20±2 g are used as control group, while the other 50 mice are given alloxan to make model by intraperitoneal injection according to body weight 220 mg/kg.

aldose reductase = aldose reductase (Homo sapiens, UniProt P15121); experiment: aldose reductase inhibitory activity test in vitro; type: biochemical
In short: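 Absorbance assay with 0.1 mM NADPH solution and enzyme preincubated with compound 10 min at room temperature, then 10 mM D,L-glyceraldehyde solution added as substrate. Incubation 30 min at 37 °C in PBS. Read-out is optical density at 340 nm, corrected with blank (no compound) and background (no substrate) wells.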

Structure (SMILES)	IC50 [1]	fat vacuole in hepatocyte (liver tissue section, HE) [2]	effect on liver index of fatty liver rats (in words) [3]	ALT ([3]; 10 mg/kg)	HDL-C ([3]; 10 mg/kg)	LDL-C ([3]; 10 mg/kg)	Liver index ([3]; 10 mg/kg)	TC ([3]; 10 mg/kg)	TG ([3]; 10 mg/kg)	ALT ([3]; 20 mg/kg)	HDL-C ([3]; 20 mg/kg)	LDL-C ([3]; 20 mg/kg)	Liver index ([3]; 20 mg/kg)	TC ([3]; 20 mg/kg)	TG ([3]; 20 mg/kg)	effect on blood sugar level of hyperglycemic mice (in words) ([4]; 10 days)	IC50 (aldose reductase)	blood sugar after administration ([4]; 50 mg/kg intragastric, 10 days, fasted 10 hours)	blood sugar before administration ([4]; before administration)
CC(C)=CCC/C(C)=C/CCC1=C[C@@H](c2cc(O)ccc2O)OC1=O [S28, (S,E)-5-(2,5-dihydroxyphenyl)-3-(4,8-dimethylnona-3,7-dien-1-yl)furan-2(5H)-one]	9.5 µM	almost disappear	effectively decrease the liver index of fatty liver rats	45.97** U/L	0.61** mmol/L	0.79** mmol/L	2.91**	1.95** mmol/L	1.38** mmol/L	41.08** U/L	0.68** mmol/L	0.70** mmol/L	2.58**	1.36** mmol/L	1.15** mmol/L	significantly decrease the blood sugar level of hyperglycemic mice	1600 nM	–	–
CC(C)=CCC/C(C)=C/CCC1=C[C@H](c2cc(O)ccc2O)OC1=O [S13, (R,E)-5-(2,5-dihydroxyphenyl)-3-(4,8-dimethylnona-3,7-dien-1-yl)furan-2(5H)-one]	8.9 µM	almost disappear	effectively decrease the liver index of fatty liver rats	48.24** U/L	0.57* mmol/L	0.83* mmol/L	2.85**	1.81** mmol/L	1.21** mmol/L	33.56** U/L	0.72** mmol/L	0.71** mmol/L	2.47**	1.37** mmol/L	1.08** mmol/L	significantly decrease the blood sugar level of hyperglycemic mice	1800 nM	5.11** mmol/L	14.50 mmol/L

From patent US10441562B2, “Aromatic farnesyl compound and application thereof” (INSTITUTE OF MICROBIOLOGY, CHINESE ACADEMY OF SCIENCES, priority 2015, dated 2019)
